Data: patent publication US11246907B2, “Immunosuppressive agents and their use in therapy” (Norwegian University of Science and Technology, priority 2013, dated 2022)
Ends that are not written are not given here.

Columns and labels:
[1] = tested on: Akt Ser473 phosphorylation; experiment: Western blot of Akt Ser473 phosphorylation in peripheral blood monocytes; format: cell-based, human; conditions: 4 μM ATX-101, 4 h
Procedure: (§1) Data is from one representative donor out of three; and (B-E) show multiplex analysis of cytokine levels produced by peripheral blood monocytes stimulated with 10 ng/ml LPS (B and D, same donor) and 40 μg/ml polyIC (C and E, same donor) after 4 h. (B and C) Stimulated-monocytes were treated with 4 μM ATX-101, 10 μM SB203580 (p38 MAPK inhibitor), and combination of ATX-101 and SB203580. (D and E) Stimulated-monocytes were treated with 4 μM ATX-101, 5 and 10 μM LY294002 (PI3K class I inhibitor), and combination of ATX-101 and LY294002. Measured cytokine levels were normalized to cytokine levels from monocytes stimulated with TLR ligand alone. A two fold or higher increase in cytokine level after TLR stimulation was defined as cytokine induction. # Value is too low to be visible in the column diagram; ? cytokine measurement was out of range. Data is from representative experiments out of two.
Mononucleated cells were seeded and stimulated as described above. JJN-3 cells were treated with ATX-101 (6 μM) for 4 h. HaCaT cells were treated with ATX-101 (12 μM), polylC (2 μg/ml), and LPS (100 ng/ml) for 4 h. […] The proteins were visualized with the Odyssey infrared imaging system (LI-COR) and quantified using Odyssey Image Studio V2. […]

[2] = tested on: peripheral blood monocytes; experiment: Multiplex (27-plex) cytokine secretion of TLR-ligand stimulated peripheral blood monocytes; format: cell-based, human; conditions: 4 h
Procedure: Measured cytokine levels were normalized to cytokine levels from monocytes stimulated with TLR ligand alone. A two fold or higher increase in cytokine level after TLR stimulation was defined as cytokine induction. […] Isolated monocytes were stimulated with 10 ng/ml LPS and 40 μg/ml polyIC alone and in combination with 4 μM ATX-101 for 4 h. […] DRAQS was used for nuclear staining. Bar, 5 μm.
as §1
(§2) Measured cytokine levels were normalized to cytokine levels from monocytes stimulated with TLR ligand alone. A two fold or higher increase in cytokine level after TLR stimulation was defined as cytokine induction. ? Cytokine measurement was out of range. Data is from one experiment out of two.
Measured cytokine levels were normalized to cytokine levels from monocytes stimulated with TLR ligand alone. Data is from one donor. We obtained similar results for IL-6 secretion in two other donors.
as §2, with “# Value is too low to be visible in the column diagram; 0” for “?”
Peripheral blood mononuclear cells were isolated from A+ buffy coats (Blood Bank, St. Olav's University Hospital, Trondheim, Norway) by density gradient centrifugation (Lymphoprep; Axis-Shield PoC, Oslo, Norway). Mononucleated cells were seeded at 4 million cells/ml in serum-free RPMI 1640 supplemented with glutamine and gentamicin. After 60-90 min the adherent cell population was washed before cultured in medium with 10% heat-inactivated human serum (Blood Bank, St. Olav's University Hospital). ATX-101 (4 μM [Innovagen, Lund, Sweden]), ATX-A (4 μM, [Innovagen]) (ATX-A is represented in SEQ ID NO: 1206 and contains the motif RALVK (SEQ ID NO: 1207), which is not capable of interacting with PCNA), p38 inhibitor (SB203580, 10 μM, [Sigma-Aldrich]), PI3K inhibitor (LY294002, 5 and 10 μM, [Sigma-Aldrich]), and Akt inhibitor (Akt inhibitor XVIII SC66, 1 μg/ml, [Sigma-Aldrich]) were added in serum-free medium and incubated for 5 min before LPS (10 ng/ml, [Sigma-Aldrich]), polylC (40 μg/ml, [GE Healthcare, Little Chalfont, UK]), PAM3Cys (10 ng/ml, [Invivogen, San Diego, Calif., USA]) or R848 (10 μg/ml, [Invivogen]) were added in serum-containing medium. The cells were incubated for 4 h before the supernatants were harvested and frozen prior to further cytokine analysis by the 27-plex assay (Bio-Plex ProTM Human cytokine 27-plex assay).

[3] = tested on: Akt Ser473 phosphorylation; experiment: Western blot of Akt Ser473 phosphorylation in JJN-3 cells; format: cell-based; conditions: 6 μM ATX-101, 4, 8, 24 h

Ac-MDRWLVKWKKKRKIRRRRRRRRRRR [ATX-101]
LPS- and polyIC-induced and basal Akt phosphorylation [1]: reduced | cytokine secretion, combination of ATX-101 and p38 MAPK inhibitor ([2]; LPS or polyIC, 4 μM ATX-101 + 10 μM SB203580): increased reduction of most cytokines | cytokine secretion, combination of ATX-101 and PI3K inhibitor LY294002 ([2]; LPS or polyIC, 4 μM ATX-101 + 5 and 10 μM LY294002): reduction in the secretion of some cytokines | cytokine secretion from stimulated monocytes, single agent ([2]; LPS or polyIC, ATX-101 4 μM, SB203580 10 μM, LY294002 5 and 10 μM, SC66 1 μg/ml): reduced cytokine secretion | basal level production of CXCL10 ([2]; isolated monocytes, 4 μM): decreased | basal level of IL-12 ([2]; monocytes, 4 μM): reduced the basal level of IL-12 | secretion of LPS-induced cytokines ([2]; monocytes, 4 μM, 10 ng/ml LPS): efficiently reduced | secretion of CXCL10, CCL2, CCL3 and CCL4 after TLR3 stimulation with polyIC ([2]; monocytes, 4 μM, 40 μg/ml polyIC): reduced the secretion of CXCL10, CCL2, CCL3, and CCL4 | phosphorylation of Akt [3]: decreased
